Measurements taken from patent publication US5709816A, “Singlet oxygen quenchers and external compositions containing the same” (Kao Corporation, priority 1899, dated 1998).

Key:
[1] = system: skin of white guinea pigs; assay: Inhibition of erythema formation (UV-A/UV-B irradiation); type: in vivo; settings: Cavia porcellus, light or radiation study, topical; 5 wt. % in ethanol; UV-A/UV-B 40 J/cm^2; determined after 1 day and 2 days; read-out: Erythema inhibition rate
Excerpt: Inhibition of erythema formation
The hair of white guinea pigs (8 weeks old, female) hair was removed by shaving, and an ethanol solution containing a test substance (5 wt. %) was applied to the shaved part of each animal. A mixture of UV-A/UV-B (40 J/cm^2, measured at 365 nm using a UV-radiometer UVR-305/365-D, Torex Co.) was irradiated onto the back of each guinea pig using a solar simulator Model 1600 (Solar Light Co.). After 1 day and 2 days of irradiation, the erythema formation was visually determined by the standards of the Japanese Dermatological Association to obtain erythema inhibition ratios.

[2] = system: skin of colored guinea pigs; assay: Inhibition of delayed darkening (UV-A/UV-B irradiation); type: in vivo; settings: 7 wt. % in ethanol; UV-A/UV-B 50 J/cm^2; 14 days after irradiation; color difference meter
Procedure: Inhibition of delayed darkening
The hair of colored guinea pigs (8 week old, female) hair was removed, and an ethanol solution containing a test substance (7 wt. %) was applied to the skin. A mixture of UV- A/UV-B rays (50 J/cm^2, measured at 365 nm using a UV-radiometer UVR-305/365-D, Torex Co.) was irradiated onto the back of each guinea pig using a solar simulator. Fourteen days after irradiation, delayed darkening inhibition ratios were measured using a color difference meter (Model 1001P. Nippon Kogyo Co., Ltd.).

[3] = Quenching rate constant of singlet oxygen (Rose Bengal photosensitization, Stern-Volmer method); type: biochemical; settings: for weakening of the 1,270 nm singlet oxygen emission peak with increasing quencher concentration: 50 μM ethanol solution of Rose Bengal, 490-590 nm irradiation
Excerpt: Method for measuring the quenching rate constant of singlet oxygen:
The apparatus used for measuring singlet oxygen included the following parts.
(1) Light source: Xenon lamp (150 W) (Atago Bussan K.K.)
(2) Filters on the excitation side: Water filter (optical path: 50 mm), Color glass filters (HA-15, HA-30, G-533, manufactured by Hoya K.K.)
(3) Sample: Square quartz cell (2×10×50 mm)
(4) Filters on the detection side: Color glass filter (IR-85, manufactured by Hoya K.K.), Interference filter (Nippon Shinku-Kogaku K.K.)
(5) Spectrometer and detector: Spectrometer (HR-320, Jovin Yvon Co.), Germanium (Ge) detector (EO-817L, a type using liquid nitrogen as a coolant, North coast Scientic Corporation)
(6) Amplifier: Light chopper (5584, NF Co.), Frequency filter (E-3201B, NF Co.), Super low noise amplifier (SA-200F3, NF Co.), Digital storage oscilloscope (2431L, SONY Tektronix Co.)
(7) Recording section: Personal computer (PC-9801 BA, NEC Corporation), GP-IB interface
(8) Oxygen concentration control unit: High-pressure oxygen cylinder
Using this apparatus, light was irradiated onto a system which is known to produce singlet oxygen through photochemical sensitization. The wavelength of the light was within an appropriate absorption range of the photosensitizer employed. weak emission in the near infrared region, which is specific to singlet oxygen, was measured for its intensity I. Subsequently, the emission obtained when a test substance was added to the same system was measured. From the decrease in emission intensity I, the quenching rate constant of singlet oxygen of the test substance could be measured in accordance with the Stern-Volmer method. However, since some substances react with the photochemical sensitization system to cause errors in the measurements, the method described by R. H. Young et al., Photochem. Photobiol., vol. 17, p. 233 (1973) was applied to correct this contribution quenching.
A 50 μM ethanol solution of Rose Bengal in a 400 μl square quartz cell was used as a test substance.
First, the light within 490-590 nm, which is appropriate for the maximum absorption wavelength of Rose Bengal, was irradiated onto the cell containing the test substance.
Similarly, another system was subjected to measurement in which a typical singlet oxygen quencher, β-carotene, sodium azide,or 1,4-diazabicyclo[2.2.2]octane, had been added.
Measurement of the quenching rate constant of singlet oxygen: An ethanol solution of each of compounds obtained in the above-described Synthesis Examples and N-phenyldiethanolamine (compound (36)), with Rose Bengal, as a conventional photosensitizer, was used for the measurement of the quenching rate constants of singlet oxygen.
First, emission intensity I of a mixture solution containing 50 μM of Rose Bengal and the above compounds were measured under saturated air conditions. The ratio IOair /Iair was calculated, wherein Iair represents the emission intensity measured for a solution with a test substance at a concentration of Cq (Iair), and Oair represents the emission intensity measured for a solution without test substance. Next, under saturated oxygen conditions, emission intensity was measured for a solution with a test substance at the same concentration Cq (I302). Using these emission intensities, the correction term Fair was obtained in accordance with the following equation.
Interference attributed to the test substance with respect to the photosensitization reaction system was corrected by multiplying IOair /Iair by Fair.
Using the following equation:
(IOair /Iair)'=1+kq ·.tau.·Cq

[4] = system: E. coli vector pUC119 DNA; type: biochemical; settings: 0.01 wt. % in ethanol; 100 mM porphyrin; UV-A/UV-B 3 J/cm^2; agarose gel electrophoresis
Procedure: To a mixture of […] E. coli vector pUC119 DNA and 100 mM porphyrin, an ethanol solution containing a test substance (0.01 wt. %) was added. A mixture of UV-A/UV-B (3 J/cm^2, measured at 365 nm) was irradiated onto the resultant DNA mixture using a solar simulator. A 2.5-fold amount of ethanol and a 0.1-fold amount of 5M sodium acetate were added and the DNA was precipitated. The DNA pellet was dissolved in a TE buffer, and analyzed through agarose gel electrophoresis. Inhibition of DNA single strand breaks formation was measured.

[5] = system: sunburn cells in skin of ICR/HR mice; assay: Inhibition of sunburn cell formation (UV-B irradiation); type: in vivo; settings: 1 wt. % in ethanol, UV-B 100 mJ/cm^2, 24 hours later; for inhibition in vivo at 1 %: Mus musculus, light or radiation study, topical, read-out: Inhibition ratio regarding sunburn cell formation
Excerpt: Inhibition of sunburn cell formation
Ethanol solution of a test substance (1 wt. %) was applied onto the skin of ICR/HR mice. UV-B (100 mJ/cm^2) was irradiated onto the skin (health lamp SE20/SLE, Toshiba). Twenty-four hours later, the skin was biopsied and stained using hematoxylin & eosin, after which the number of sunburn cells were counted under microscope.

[6] = system: collagen; assay: Inhibition of protein denaturation (collagen crosslinking, porphyrin + UV); type: biochemical; settings: 0.1 wt. % in ethanol; collagen 0.5 mg/ml, porphyrin 100 mM; UV-A/UV-B 3 J/cm^2; SDS-PAGE
Procedure: Inhibition of protein denaturation
An ethanol solution containing a test substance (0.1 wt. %) was added to a mixture of collagen (0.5 mg/ml) and 2 porphyrin (100 mM). A mixture of UV-A/UV-B (3 J/cm^2, measured at 365 nm) was irradiated onto the resultant mixture using a solar simulator. The irradiated mixture was applied to SDS-PAGE electrophoresis, and collagen crosslinking inhibition ratios were measured.

[7] = system: cultured human fibroblasts; assay: Inhibition of lipid peroxide formation in cultured human fibroblasts (TBA method); type: cell-based; settings: 0.01 wt. % in ethanol, 100 mM porphyrin; for inhibition at 0.01 wt%: Homo sapiens, Fibroblast, light or radiation study, UV-A/UV-B 1 J/cm^2, read-out: Inhibition ratio regarding lipid peroxide formation
Procedure: Inhibition of lipid peroxide formation
Cultured human fibroblasts were combined with 100 mM porphyrin and a test substance (0.01 wt. %, in ethanol). A mixture of UV-A/UV-B rays (1 J/cm^2, measurements performed at 365 nm) was irradiated onto the resultant cell culture using a solar simulator. The fibroblasts were collected after the trypsin treatment, then extracted hydrophobic substances using acetone. The extracted substances were dried under nitrogen to prepare cellular lipid samples. A TBA method was used to measure lipid peroxides in cells and inhibition ratio by a test substance.

[8] = system: dopachrome formation from dopa; assay: Inhibition of immediate pigment darkening (dopachrome formation from dopa, porphyrin + UV); type: biochemical; settings: 0.5 wt. % in ethanol; dopa 1 mM, porphyrin 5 mM; UV-A/UV-B 3 J/cm^2; absorption at 475 nm
Procedure: Inhibition of immediate pigment darkening
An ethanol solution containing a test substance (0.5 wt. %) was added to a mixture of dopa (1 mM) and porphyrin (5 mM). A mixture of UV-A/UV-B (3 J/cm^2, measured at 365 nm) was irradiated onto the resultant mixture using a solar simulator. The amount of dopachrome formed by irradiation was determined by measuring absorption at 475 nm.

[9] = system: skin of hairless mice; assay: Inhibition of wrinkle formation in hairless mice (visual wrinkle index); type: in vivo, hairless mouse (HR/ICR); settings: 5 wt. % in ethanol, 80 μl; UV-B five times per week, sixteen weeks; scale 1 (no wrinkles) to 4; control (ethanol) 3.78 ± 0.08
Procedure: (1) Inhibition of wrinkle formation in hairless mice.
(§1) To each hairless mouse (HR/ICR, 6 weeks old when the test started), a test substance (5 wt. %, in ethanol) was applied. (80 μl). Approximately 10 minutes later, UV-B was irradiated thereto using 6 bulbs of health lamps (SL20-SLE, Toshiba) so that the dose per irradiation was not greater than 1 MED. Irradiation was repeated five times per week over sixteen weeks. While the irradiation energy was measured using a UV-radiometer (UVR-305/S65D, Tokyo Optical K.K.) so that the dose per irradiation was not greater than 1 MED, energy was irradiated at an intensity of 0.28 mW/cm^2, with the total dose. 100 mJ/cm^2. As a control, a case where only ethanol was applied was similarly tested in a manner performed on the test substances.
After completion of the testing, the level of wrinkle formation was visually determined using the following standards (wrinkle indices).
1: No wrinkles are formed
2: Small amounts of wrinkles are formed
3: Moderate amounts of wrinkles are formed
4: Considerable amounts of wrinkles are formed

[10] = system: skin of hairless mice; assay: Analysis of wrinkles in hairless mice (image analysis of skin replicas); type: in vivo, hairless mouse (HR/ICR); settings: 5 wt. % in ethanol, 80 μl; UV-B sixteen weeks; shadow area of skin replicas, 30°; control (ethanol) 6.46 ± 0.68
Procedure: as §1
In order to analyze the wrinkles formed in the above step (1) in detail, replicas of different skin areas (3 replicas per mouse) each having a round shape with a diameter of 1 cm were obtained using a hydrophilic exaflex, hydrophilic vinyl silicone imaging agent. Each replica was placed horizontally and lightened from an angle of 30°. The area of shadows formed by wrinkles was analyzed as the area ratio using an image analyzing apparatus.

[11] = system: skin of ICR/HR mice; assay: Inhibition of wrinkle formation in the skin of mice (UV-B, 16 weeks); type: in vivo, ICR/HR mouse; settings: 1 wt. % in ethanol, 1 MED UV-B five times per week over sixteen weeks; for inhibition in vivo at 1 %: Mus musculus, topical, 2688 h
Excerpt: Inhibition of wrinkle formation in the skin of mice
To the back of each ICR/HR mouse (female, 6 weeks old), an ethanol solution containing a test substance (1 wt. %) was applied. One (1) MED of UV-B was irradiated thereto using a health lamp SL20-SLE (Toshiba). Irradiation was repeated five times per week over sixteen weeks. Wrinkle formation was visually scored using the following five rankings.
1: Mild and questionable wrinkles are observed
2: Mild but clear and definite wrinkles are observed
3: Moderate wrinkles are observed
4: Severe wrinkles are observed
Using the above rankings, wrinkle formations were scored and the inhibition ratios were determined by the division by the blank score.

In the case of `OCCN(CCO)c1ccccc1` [Compound (36), N-phenyldiethanolamine], the inhibition in vivo at 5 % [1] is reported as 48%, the ΔΔL value [2] is reported as 1.2 and the “Extinction rate constant of singlet oxygen” value ([3]; kq, ethanol solution, 50 μM Rose Bengal, singlet oxygen lifetime taken as 10 μs) is reported as 5.8e+07 M⁻¹ s⁻¹. The “Prevention of DNA damage” value [4] was 58%, the inhibition in vivo at 1 % [5] was 62% and the “Protein denaturation inhibition ratio” value [6] was 69%. The inhibition at 0.01 wt% [7] was 46% and the “Inhibition ratio regarding immediate blackening” value [8] was 64%.

In the case of `COc1cc(N(Cc2ccc(C)o2)Cc2ccc(C)o2)cc(OC)c1OC` [Compound (28), N,N-bis(5-methylfurfuryl)-3,4,5-trimethoxyphenylamine], the Wrinkle index [9] is reported as 2.43 ± 0.06 and the “Area ratio of image analysis” value [10] is reported as 3.24 ± 0.33%.

For `C1CN2CCN1CC2` [1,4-diazabicyclo[2.2.2]octane, reference compound], the “weakening of the 1,270 nm singlet oxygen emission peak with increasing quencher concentration” value [3] was “the peak at 1,270 nm weakened”.

With `[N-]=[N+]=[N-].[Na+]` [Comparative compound (4), Sodium azide, reference compound] the “weakening of the 1,270 nm singlet oxygen emission peak with increasing quencher concentration” value [3] was “the peak at 1,270 nm weakened”, the “Inhibition of wrinkle formation” value [11] was 28% and the “Prevention of DNA damage” value [4] was 53%. The “Protein denaturation inhibition ratio” value [6] was 45%, the “Inhibition ratio regarding lipid peroxide formation” value ([7]; UV-A/UV-B 1 J/cm^2) was 37 and the “Inhibition ratio regarding immediate blackening” value [8] was 48%.

Work on `Oc1ccc(O)cc1` [Comparative compound (3), Hydroquinone, reference compound] yielded a ΔΔL value [2] of 0.7.

With `Cc1c(C)c2c(c(C)c1O)CCC(C)(CCCC(C)CCCC(C)CCCC(C)C)O2` (stereo not drawn) [Comparative compound (6), α-Tocopherol, reference compound] the inhibition in vivo at 1 % [11] was 34%, the “Prevention of DNA damage” value [4] was 34% and the “Protein denaturation inhibition ratio” value [6] was 30%. It also gave an inhibition at 0.01 wt% [7] of 42%.

For `[Cl][Cd][Cl]` [Comparative compound (2), Cadmium chloride, reference compound], the “Inhibition ratio regarding sunburn cell formation” value [5] was 67%.

For `O=C1O[C@H]([C@@H](O)CO)C(O)=C1O` [Comparative compound (5), Ascorbic acid, reference compound], the inhibition in vivo at 1 % [11] was 11%, the “Prevention of DNA damage” value [4] was 21% and the inhibition at 0.01 wt% [7] was 43%. The “Inhibition ratio regarding immediate blackening” value [8] was 42%.

`COC(=O)C=Cc1ccc(OC)cc1` [Comparative compound (1), Methyl p-methoxycinnamate, reference compound] gave an inhibition in vivo at 5 % [1] of 31%, a ΔΔL value [2] of 0.9 and an inhibition in vivo at 1 % [5] of 37%.

With `CC1=C(/C=C/C(C)=C/C=C/C(C)=C/C=C/C=C(C)/C=C/C=C(C)/C=C/C2=C(C)CCCC2(C)C)C(C)(C)CCC1` [β-carotene, reference compound] the “weakening of the 1,270 nm singlet oxygen emission peak with increasing quencher concentration” value [3] was “the peak at 1,270 nm weakened”.
